Test results: patent US8901118B2, “Compounds and methods for kinase modulation, and indications therefor” (Plexxikon Inc., priority 2010, dated 2014)

Experiments:
[1] = Relative solubility by turbidity in aqueous buffers (pH 1.5, 4.5, 6.8, 7.4); format: physicochemical
In short: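 Twofold DMSO dilutions of a 25 mM stock were spiked into SGF (0.5M NaCl, pH 1.5), SIF (0.05M NaH2PO4, pH 4.5 and 6.8) or HEPES buffer (10 mM HEPES, 150 mM NaCl, pH 7.4). Absorbance was read at 490, 535 and 650 nm. The endpoint is the concentration crossing O.D. 0.01, averaged across wavelengths.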

CYP1A2 = biological target: T1, CYP1A2 (Homo sapiens, UniProt P05177); assay: CYP1A2 inhibition (fluorescent substrate CEC); format: in vitro ADME; settings: read-out: Cyp IC50 1A2
T1 sequence (P05177 1-516): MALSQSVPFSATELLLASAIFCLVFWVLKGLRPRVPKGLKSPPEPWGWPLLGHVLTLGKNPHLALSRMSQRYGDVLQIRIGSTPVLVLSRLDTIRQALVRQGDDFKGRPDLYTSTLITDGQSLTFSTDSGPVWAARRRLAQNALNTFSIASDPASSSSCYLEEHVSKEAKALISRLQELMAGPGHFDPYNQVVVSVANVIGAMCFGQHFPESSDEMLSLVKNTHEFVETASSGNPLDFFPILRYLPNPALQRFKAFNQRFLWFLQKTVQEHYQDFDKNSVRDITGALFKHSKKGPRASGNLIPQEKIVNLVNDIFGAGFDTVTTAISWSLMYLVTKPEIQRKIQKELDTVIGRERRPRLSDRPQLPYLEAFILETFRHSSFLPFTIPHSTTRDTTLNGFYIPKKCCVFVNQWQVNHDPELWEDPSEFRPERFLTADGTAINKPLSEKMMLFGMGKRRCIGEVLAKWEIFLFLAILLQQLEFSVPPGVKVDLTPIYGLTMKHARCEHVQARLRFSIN
In short: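 Test compounds, 10-point 1:1 serial dilutions in NADPH-regenerating cofactor mix, were preincubated 10 min at 37° C before recombinant enzyme and fluorogenic substrate reactions at 37° C (CYP1A2 15 min; CYP2C9 45 min; CYP2C19, 2D6 30 min). Product fluorescence was read at 409 ex with 460 em (1A2, 2C19) or 530 em (2C9, 2D6), and IC50 fitted from signal versus concentration.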

CYP3A4(BFC) = CYP3A4(BFC) (Homo sapiens, UniProt P08684); assay: CYP3A4(BFC) inhibition; format: in vitro ADME; settings: CYP3A4, substrate BFC; read-out: Cyp IC50 3A4(BFC)
CYP3A4(BFC), sequence (P08684 whole entry): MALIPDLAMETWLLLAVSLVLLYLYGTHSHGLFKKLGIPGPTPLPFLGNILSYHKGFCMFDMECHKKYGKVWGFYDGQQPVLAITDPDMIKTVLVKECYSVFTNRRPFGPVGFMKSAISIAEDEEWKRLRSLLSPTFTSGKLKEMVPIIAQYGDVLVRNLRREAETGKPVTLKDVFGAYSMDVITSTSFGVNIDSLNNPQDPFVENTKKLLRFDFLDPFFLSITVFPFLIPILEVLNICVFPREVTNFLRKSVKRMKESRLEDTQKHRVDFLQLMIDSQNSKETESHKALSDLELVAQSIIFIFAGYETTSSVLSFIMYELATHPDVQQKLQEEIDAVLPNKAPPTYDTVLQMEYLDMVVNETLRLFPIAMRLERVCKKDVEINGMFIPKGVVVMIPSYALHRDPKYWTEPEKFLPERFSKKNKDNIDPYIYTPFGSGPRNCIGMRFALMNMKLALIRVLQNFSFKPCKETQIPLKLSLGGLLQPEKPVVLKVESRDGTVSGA
In short: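 Inhibition of human CYP3A4 with the BFC substrate was measured by fluorescence loss of the metabolized product. Compounds at 100 mM in DMSO were diluted 1 μL into 82 μL acetonitrile, then 11 μL into 204 μL cofactor mix with NADPH regeneration solutions, and serially diluted 1:1 to 10 points. Plates were incubated 30 min at 37° C and read at 409 ex/460 em to obtain IC50.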

- IC50 (CYP1A2): > 10 µM
- IC50 (CYP3A4(BFC)): < 5 µM
Compound: Fc1cc(Cc2c[nH]c3ncnc(NC4CC4)c23)cnc1NC1CCC(F)(F)CC1 [Compound P-4127, N-cyclopropyl-5-[[6-[(4,4-difluorocyclohexyl)amino]-5-fluoro-3-pyridyl]methyl]-7H-pyrrolo[2,3-d]pyrimidin-4-amine]
- turbidity threshold (L, M, H) 1.4 ([1]; pH 1.5 (SGF)): H (high solubility if the threshold concentration is >250 μm)
- turbidity threshold (L, M, H) 4.5 ([1]; pH 4.5 (SIF)): M (moderate solubility if the threshold concentration is 31.3 μM to 250 μM)
- turbidity threshold (L, M, H) 6.8 ([1]; pH 6.8 (SIF)): M (moderate solubility if the threshold concentration is 31.3 μM to 250 μM)
- turbidity threshold (L, M, H) 7.4 ([1]; pH 7.4 (HEPES)): M (moderate solubility if the threshold concentration is 31.3 μM to 250 μM)
